This note sets out measurements from patent publication US20090324708A1, “COMPOUND HAVING INHIBITORY ACTIVITY ON A RHO-GTPASE CELL PROTEIN, A PROCESS FOR OBTAINING THE SAME, PHARMACEUTICAL COMPOSITIONS COMPRISING THEREOF AND A METHOD FOR THE TREATMENT OF RHO-GTPASE CELL PROTEIN-MEDIATED CONDITION” (Universidad Nacional De Quilmes, priority 2006, published 2009).

As a reminder, the inhibition is how much of the control response was suppressed. The term IC50 denotes the concentration needed to halve the response being measured.

Marks after values point to notes of the source that are not given here.

Common to all, as to assay type: cell-based, mouse
In data set [1] the test system is breast carcinoma F3II cells. Briefly: Monolayer wound assay of tumor cell migration. As to conditions: for No of migrating cells: overnight, MEM with 10% FBS. On the procedure:
The present assay consists in the determination of the antimigration effect of the selected compounds on the breast carcinoma cells migration. Cell motility is a key process in the invasion and tumor metastasis processes and it is closely regulated by the Rho-GTPases family, particularly by Rac.
Tumor cell migration in vitro was measured by the “monolayer wound” assay described previously (Alonso D F, Farias E F, Urtreger A, Ladeda V, Vidal M C and Bal de Kier Joffé E: Characterization of F3II, a mammary sarcomatoid carcinoma cell line originated from a mouse adenocarcinoma. J. Surgh. Oncol 1996, 62: 288-297). 0.5 mm width lines were made in confluent monolayers. After washing with PBS, the tumor cells were incubated overnight in MEM with 10% FBS and the monolayers were fixed and stained with methylene blue. The number of cells that moved along the free space were counted by using a 0.36 mm^2 graded grid, using a magnification of 100×, in 3 independent fields per each line.
Doses from 1 to 50 μM of the compounds were assessed, thereby finding a saturation of the antimigration effect in the 3 compounds studied, starting from 10 μM, obtaining an approximate inhibition of 30 to 50% respectively.

In data set [2] the test system is breast carcinoma F3II cells. Kind of data set: Effect on quiescent F3II cells / cytotoxicity (toluidine staining and MTT assay). As to conditions: absence of FBS; for cytotoxic effect: 100 μM, 24 hours, semiconfluent monolayers, toluidine and MTT assay; for IC50: Quiescent Cells, F3II, 24 hs. On the procedure: (§1) The antiproliferative effect of the above mentioned compounds on breast carcinoma F3II cells is disclosed in the present example. The synthesized compounds are purine nucleoside derivatives which present chemical modifications in either the ribose and/or in the base. These modifications mainly consisted in acetylations of positions 2′-3′ of the ribose, varying the number of carbon atoms of the acyl substituents in position 5′. The cells were treated for 72 hours in the presence of fetal bovine serum 10% with different doses of the compounds, with the aim of determining the inhibitory concentration 50% (IC50). The cell growth was estimated by toluidine test, for which the cell monolayers were fixed with formalin (Formol 10%) and stained with toluidine blue 0.5%. Subsequently, the stained cells were thoroughly washed with PBS and solubilized with 1% SDS. Finally, the number of cells was estimated by measuring the absorbance values at 595 nm. The IC50 values of the compounds Nucl 1, Nucl 4 and Nucl 5, both for cells in the exponential growth phase and for quiescent cells, are depicted in Table 2.
In addition, the effect of the analogs showing antiproliferative effect on quiescent cells, was studied in order to discriminate between an antitumoral effect and an unspecific cytotoxic effect. For this purpose, the semiconfluent cell monolayers were incubated for 24 hours in the absence of FBS with the analogs Nucl 1, Nucl 4 and Nucl 5, at a concentration of 100 μM. Subsequently, the cells were fixed and stained with toluidine in order to determine the number of cells. Simultaneously, the cytotoxic effect was determined by the MTT assay.
(In general: Formazan colour is commonly taken as a measure of viable cells.)

The test system of data set [3] is breast carcinoma F3II cells. Kind of data set: Antiproliferative effect on growing F3II cells (toluidine test). As to conditions: 10% fetal bovine serum.
Excerpt: as §1, with “The cells were treated for 72 hours in the presence of fetal bovine serum 10% with different doses of the compounds, with the aim of determining the inhibitory concentration 50% (IC50).” left out

As to `CC(=O)OC[C@H]1O[C@@H](n2cnc3c(=O)[nH]c(N)nc32)[C@H](OC(C)=O)[C@@H]1OC(C)=O` [Nucl 1, 2′,3′,5′-tri-O-acetyl-guanosine], the “No of migrating cells” value in data set [1] (10 μM) was 97.7*. Also, in data set [1] (Mus musculus), the inhibition at 10 µM amounted to 32.2%. Also, the cytotoxic effect entry in data set [2] is given as “In none of the cases a cytotoxic effect was observed”. The concentration for half-maximal inhibition (IC50) in data set [2] (Mus musculus) is over 100 µM; in data set [3] (Mus musculus, 48 hs, read-out: IC50 48 hs) it was 26 µM; in data set [3] (Mus musculus, 72 hs, read-out: IC50 72 hs), 68 µM.

Consider `CC(=O)OC[C@H]1O[C@@H](n2cnc3c(Cl)ncnc32)[C@H](OC(C)=O)[C@@H]1OC(C)=O` [Nucl 4, 6-chloro-2′,3′,5′-tri-O-acetyl-purine riboside], for which the “Inhibition % (cell migration)” value in data set [1] (10 μM) is reported as 40.6%. Also, the “No of migrating cells” value in data set [1] (10 μM) was 85.5**. Moreover, in data set [2], the cytotoxic effect entry is “In none of the cases a cytotoxic effect was observed”. The 50% inhibitory concentration (IC50) was over 100 µM in data set [2]; 60 µM in data set [3] (48 hs, read-out: IC50 48 hs); 56 µM in data set [3] (72 hs, read-out: IC50 72 hs).
